Data on two compounds can be found in patent US20230074252A1, “DOSAGES AND METHODS FOR TREATING PULMONARY ARTERIAL HYPERTENSION WITH RODATRISTAT” (Altavant Sciences GmbH, priority 2020, published 2023).

Data set [1] concerns the target T1, CYP2C8 (Homo sapiens, UniProt P10632).
T1 sequence (P10632 1-490): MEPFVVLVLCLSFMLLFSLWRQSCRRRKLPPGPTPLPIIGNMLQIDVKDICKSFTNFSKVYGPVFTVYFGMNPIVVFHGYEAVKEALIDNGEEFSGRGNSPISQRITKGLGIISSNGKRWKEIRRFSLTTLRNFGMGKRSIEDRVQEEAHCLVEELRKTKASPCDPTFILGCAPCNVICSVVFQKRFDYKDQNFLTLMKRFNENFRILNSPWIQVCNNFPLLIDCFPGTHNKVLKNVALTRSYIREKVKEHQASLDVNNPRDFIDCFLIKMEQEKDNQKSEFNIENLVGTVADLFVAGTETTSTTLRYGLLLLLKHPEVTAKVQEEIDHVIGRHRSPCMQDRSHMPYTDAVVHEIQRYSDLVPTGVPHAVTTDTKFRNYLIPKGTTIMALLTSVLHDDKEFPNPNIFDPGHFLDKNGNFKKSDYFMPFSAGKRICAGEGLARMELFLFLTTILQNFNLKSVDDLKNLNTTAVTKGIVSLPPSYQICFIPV
Briefly: In vitro CYP substrate assessment (victim potential). It counts as in vitro ADME.

The target of data set [2] is CYP2C9 (Homo sapiens, UniProt P11712). Described as above. It counts as in vitro ADME.
Data set [3] deals with CYP2C19 (Homo sapiens, UniProt P33261). The description is as above. It counts as in vitro ADME.
Data set [4] concerns the target T2, BCRP (Homo sapiens, UniProt Q9UNQ0).
T2 sequence (Q9UNQ0 1-655): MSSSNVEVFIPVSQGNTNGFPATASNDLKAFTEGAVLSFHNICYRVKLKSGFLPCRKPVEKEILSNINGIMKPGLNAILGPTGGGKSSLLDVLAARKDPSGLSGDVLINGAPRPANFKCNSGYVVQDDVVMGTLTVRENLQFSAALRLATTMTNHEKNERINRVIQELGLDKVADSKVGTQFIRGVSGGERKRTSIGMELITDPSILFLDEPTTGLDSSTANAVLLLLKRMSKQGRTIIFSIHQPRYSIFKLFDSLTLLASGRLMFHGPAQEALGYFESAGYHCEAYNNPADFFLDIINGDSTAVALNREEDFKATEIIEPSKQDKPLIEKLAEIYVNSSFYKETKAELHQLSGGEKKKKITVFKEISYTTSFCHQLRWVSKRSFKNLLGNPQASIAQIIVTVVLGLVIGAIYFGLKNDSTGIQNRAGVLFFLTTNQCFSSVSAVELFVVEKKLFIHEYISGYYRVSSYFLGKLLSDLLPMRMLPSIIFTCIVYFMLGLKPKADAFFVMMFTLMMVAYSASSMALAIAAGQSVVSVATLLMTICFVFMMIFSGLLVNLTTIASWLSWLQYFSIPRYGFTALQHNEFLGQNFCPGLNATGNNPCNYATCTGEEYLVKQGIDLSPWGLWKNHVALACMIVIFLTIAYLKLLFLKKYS
The data set is described as follows: Transporter inhibition, transporter-expressing in vitro system. In kind it is in vitro ADME. The conditions noted are these: for Potential for interaction? (transporter inhibitor), BCRP: predicted @ 600 mg BID. The procedure:
The competitive inhibition of specific transporters was investigated for RVT-1201 and KAR5417 in transporter-expressing in vitro systems (XT158039). Inhibition of P-gp was evaluated using a Caco-2 cell line with digoxin as probe substrate. Inhibition of OATP1B1 and OATP1B3 was evaluated using a HEK293 cell line expressing these transporters with estradiol-17β-glucuronide as probe substrate. In addition, inhibition of other transporters was also investigated (BCRP, OAT1, OAT3, OCT2, MATE1, MATE2-K). The IC50 estimates for P-gp (RVT-1201) and OATP1B1/3 (RVT-1201 and KAR5417) supported further evaluation of inhibition DDI potential using the PBPK model. For each IC50 estimate, substrate concentration and Km were used to estimate RVT-1201 and KAR5417 Ki with Equation 1 (Cheng and Prusoff, 1973).

In data set [5] the target is T3, OATP1B1 (Homo sapiens, UniProt Q9Y6L6).
T3 construct: expressed in transfected cells; host or cells: HEK293
T3 sequence (Q9Y6L6 1-691): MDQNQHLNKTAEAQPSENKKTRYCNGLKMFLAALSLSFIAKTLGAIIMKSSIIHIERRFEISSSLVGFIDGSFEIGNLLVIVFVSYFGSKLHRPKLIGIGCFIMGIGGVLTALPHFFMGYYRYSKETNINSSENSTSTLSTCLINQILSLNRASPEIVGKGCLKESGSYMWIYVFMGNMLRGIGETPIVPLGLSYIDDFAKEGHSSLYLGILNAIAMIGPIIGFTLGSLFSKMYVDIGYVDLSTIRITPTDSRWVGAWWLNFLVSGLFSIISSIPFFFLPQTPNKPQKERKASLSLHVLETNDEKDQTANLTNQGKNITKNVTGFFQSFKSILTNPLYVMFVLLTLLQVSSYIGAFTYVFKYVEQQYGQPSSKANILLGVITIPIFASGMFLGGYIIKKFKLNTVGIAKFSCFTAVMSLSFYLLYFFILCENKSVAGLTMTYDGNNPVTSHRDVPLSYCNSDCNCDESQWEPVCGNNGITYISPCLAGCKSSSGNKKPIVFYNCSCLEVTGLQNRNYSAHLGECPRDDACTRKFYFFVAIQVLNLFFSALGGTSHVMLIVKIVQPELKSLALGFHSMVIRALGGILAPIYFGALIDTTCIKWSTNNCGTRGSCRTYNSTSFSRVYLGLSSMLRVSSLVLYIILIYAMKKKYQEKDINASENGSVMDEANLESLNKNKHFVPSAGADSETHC
Briefly: In vitro transporter substrate assessment. It counts as in vitro ADME.

The nature of data set [6]: Plasma protein binding. It counts as in vitro ADME, human. The conditions noted are these: for fraction unbound: human, plasma, read-out: Plasma protein binding (fraction bound) (converted). An excerpt:
This analysis is typically based on non-protein bound drug levels in plasma. Values for plasma protein binding (fraction bound) of rodatristat ethyl and rodatristat were 0.995 and 0.991, respectively.
Calculation of Cmax, u, portal uses plasma Cmax, fraction of an oral dose absorbed (Fa) and measured unbound fraction in blood. For rodatristat, experimentally derived values were used for Fa determined in a rat 14C study (20%) and in vitro binding to human plasma (99.1%) and blood:plasma distribution (RB, 0.72). Walsky et al proposed a threshold where the ratio of Cmax, u, portal/Ki of <0.1 is associated with low risk. […] In the rat, the RE:R is ˜3-fold higher in portal blood compared to the periphery.

Where two headings read alike, the source gives them in different places.

CYP2C9, sequence (P11712 whole entry): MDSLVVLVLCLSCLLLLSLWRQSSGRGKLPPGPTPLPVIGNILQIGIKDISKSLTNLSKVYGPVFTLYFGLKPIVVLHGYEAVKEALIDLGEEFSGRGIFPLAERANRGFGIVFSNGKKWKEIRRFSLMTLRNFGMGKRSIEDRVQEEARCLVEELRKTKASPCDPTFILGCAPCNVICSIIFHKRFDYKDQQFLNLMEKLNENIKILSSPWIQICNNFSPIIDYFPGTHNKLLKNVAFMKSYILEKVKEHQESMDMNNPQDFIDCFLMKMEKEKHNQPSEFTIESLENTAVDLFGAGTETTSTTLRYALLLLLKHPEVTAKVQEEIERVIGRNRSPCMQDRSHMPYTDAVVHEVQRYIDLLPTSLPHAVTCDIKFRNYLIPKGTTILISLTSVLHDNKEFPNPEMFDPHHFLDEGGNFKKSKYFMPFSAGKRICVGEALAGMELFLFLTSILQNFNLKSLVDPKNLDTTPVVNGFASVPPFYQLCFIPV
CYP2C19, sequence (P33261 whole entry): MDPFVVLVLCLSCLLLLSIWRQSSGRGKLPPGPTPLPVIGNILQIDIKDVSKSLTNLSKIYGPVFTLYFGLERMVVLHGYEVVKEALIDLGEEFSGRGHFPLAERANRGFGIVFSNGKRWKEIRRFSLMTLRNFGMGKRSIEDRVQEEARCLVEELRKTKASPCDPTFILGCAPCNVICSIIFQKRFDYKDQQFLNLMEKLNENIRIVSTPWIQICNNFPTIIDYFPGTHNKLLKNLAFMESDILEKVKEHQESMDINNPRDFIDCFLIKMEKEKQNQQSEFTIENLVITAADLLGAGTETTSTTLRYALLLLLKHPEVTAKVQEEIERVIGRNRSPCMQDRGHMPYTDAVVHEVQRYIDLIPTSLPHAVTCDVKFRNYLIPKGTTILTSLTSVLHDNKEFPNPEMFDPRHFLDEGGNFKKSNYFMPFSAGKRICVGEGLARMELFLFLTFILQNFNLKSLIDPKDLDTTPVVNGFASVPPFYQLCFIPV

Take `CCOC(=O)[C@@H]1CC2(CCN(c3cc(O[C@H](c4ccc(Cl)cc4-c4ccccc4)C(F)(F)F)nc(N)n3)CC2)CN1` [Rodatristat ethyl, (S)-ethyl 8-(2-amino-6-((R)-1-(5-chloro-[1,1′-biphenyl]-2-yl)-2,2,2-trifluoroethoxy)pyrimidin-4-yl)-2,8-diazaspiro[4.5]decane-3-carboxylate]: in data set [1], the “In vitro substrate? CYP2C8” value was “No”. Also, the “In vitro substrate? CYP2C9” value in data set [2] is given as “No”. Also, the “In vitro substrate? CYP2C19” value in data set [3] is reported as “No”. Also, the “Inhibition of BCRP (in words)” value is on record as “not an inhibitor” in data set [4] and “Neither rodatristat ethyl nor rodatristat inhibited” in data set [4] (listed as rodatristat ethyl). Besides, in data set [4], the “Potential for interaction? (transporter inhibitor), BCRP” value is on record as “No”. The “In vitro substrate? OATP1B1” value in data set [5] is “not a substrate and No”. Also, the fraction unbound in data set [6] was 0.005.

Consider `Nc1nc(O[C@H](c2ccc(Cl)cc2-c2ccccc2)C(F)(F)F)cc(N2CCC3(CC2)CN[C@H](C(=O)O)C3)n1` [Rodatristat, (S)-8-(2-amino-6-((R)-1-(5-chloro-[1,1′-biphenyl]-2-yl)-2,2,2-trifluoroeth-oxy)pyrimidin-4-yl)-2,8-diazaspiro[4.5]decane-3-carboxylic acid], for which the “In vitro substrate? CYP2C8” value in data set [1] is recorded as “No”. Also, the “In vitro substrate? CYP2C9” value in data set [2] is “No”. Moreover, in data set [3], the “In vitro substrate? CYP2C19” value is listed as “No”. In addition, in data set [4], the “Inhibition of BCRP (in words)” value is on record as “not an inhibitor” and the “Potential for interaction? (transporter inhibitor), BCRP” value is reported as “No”. For the same compound, the “Inhibition of BCRP (in words)” value in data set [4] (listed as rodatristat) is reported as “Neither rodatristat ethyl nor rodatristat inhibited”. Also, the “In vitro substrate? OATP1B1” value in data set [5] is “is an in vitro substrate and Yes”. Moreover, the “Accumulation by OATP1B1 uptake transporter” value in data set [5] (3 μM) came out at 2.22 fold. In addition, in data set [6], the “In vitro binding to human plasma” value came out at 99.1% and the fraction unbound is 0.009.
